Among the data in PubChem BioAssay (NCI) are GI50 and TGI values, retold here.

Values joined by “and” are separate entries in the source; they are usually repeats but may differ in a detail not shown here. Equal entries are not always repeated.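 Tested at 5 concentrations; 48 h exposure; 96-well plates; endpoints linearly interpolated, else capped at highest concentration. The concentration for 50% growth inhibition is given as GI50. TGI marks complete inhibition of growth.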

What all share (test): NCI tumour cell line growth inhibition, 48 h
Test [1] relates to SNB-19 CNS.
The test system of test [2] is NCI/ADR-RES ovarian.
For test [3], the system named is 786-0 renal.
Test [4] deals with SK-MEL-28 melanoma.
Test [5] concerns KM12 colon.
Test [6] concerns HOP-62 NSCLC.
Test [7] concerns UO-31 renal.
In test [8] the test system is RPMI-8226 leukemia.

Regarding `COc1ccc(-c2cc3c(C)nc(N)nc3n(C3CCC(OCCO)CC3)c2=O)cn1` (centres undefined), the GI50 was 318 nM and 280 nM in test [1]; 141 nM and 139 nM in test [2]; 69.4 nM and 60.5 nM in test [3]; 51.7 nM and 74 nM in test [4]; 231 nM and 209 nM in test [5]; 99.7 nM and 113 nM in test [6]. The GI50 in test [7] is 26.5 nM and 16.9 nM; in test [8], 157 nM and 61.2 nM. The TGI was 2840 nM and 3430 nM in test [1]; 2060 nM and 1650 nM in test [2]; 614 nM and 442 nM in test [3]; 425 nM and 604 nM in test [4]; 3900 nM and 2920 nM in test [5]; 2110 nM and 1930 nM in test [6]. The TGI in test [7] was 378 nM and 492 nM; in test [8], > 3740 nM and 3270 nM.

On to `CSc1nc2nc3c(nc2c(=O)n1C)C(=O)c1ccccc1C3=O`, for which the GI50 in test [1] was 304 nM; in test [2], 253 nM; in test [3], 402 nM; in test [4], 188 nM; in test [5], 278 nM; in test [6], 97 nM. The values for the GI50 in test [7] and in test [8] were 236 nM and 255 nM, respectively. Further, the TGI was 1280 nM in test [1]; 938 nM in test [2]; 1460 nM in test [3]; 452 nM in test [4]; 994 nM in test [5]; 413 nM in test [6]. Also, the values for the TGI in test [7] and in test [8] were 768 nM and 1020 nM, respectively.

Take `CN=C1C=CC(=C(c2ccc(N(C)C)cc2)c2ccc(N(C)C)cc2)C=C1`: the GI50 in test [1] is 324 nM; in test [2] it was 1500 nM; in test [3], 292 nM; in test [4], 482 nM; in test [5], 165 nM; in test [6], 76.5 nM. In addition, the GI50 was 317 nM in test [7] and 54.3 nM in test [8]. For the same molecule, the TGI in test [1] was 1940 nM; in test [2], 4830 nM; in test [3] it was 1180 nM; in test [4] it was 2070 nM; in test [5] it was 673 nM; in test [6] it was 1480 nM. For the same molecule, the results for the TGI in test [7] and in test [8] were 1210 nM and 255 nM, respectively.

Take `Nc1nc2c(C(=O)NCc3cccs3)nnn2c2cccc(Cl)c12`: the TGI in test [1], in test [2], in test [3], in test [4], in test [5] and in test [6] was greater than 100000 nM each time. Also, the TGI in test [7] and in test [8] was greater than 100000 nM each time.

Consider `C#CC1=CC(=O)C(OC)=CC1=O`, for which the TGI is greater than 100000 nM in test [1]; greater than 100000 nM in test [2]; 20100 nM in test [3]; greater than 100000 nM in test [4]; greater than 100000 nM in test [5]; 36600 nM in test [6]. Moreover, the results for the TGI in test [7] and in test [8] were 14300 nM and 49600 nM, respectively.

On to `CS(=O)(=O)c1ccc(Nc2nc(N[C@H]3CCCC[C@H]3N)nc3cc[nH]c(=O)c23)cc1`, for which the GI50 in test [1] is 714 nM; in test [2] it was greater than 100000 nM; in test [3], 3280 nM; in test [4], 1930 nM; in test [5], 491 nM; in test [6] it was 3020 nM. The GI50 in test [7] was 19700 nM; in test [8], 4000 nM. Besides, the TGI in test [1] is 28300 nM; in test [2], greater than 100000 nM; in test [3], 20600 nM; in test [4] it was 5380 nM; in test [5] it was 11900 nM; in test [6] it was greater than 100000 nM. For the same molecule, the TGI was found to be 72900 nM in test [7] and 32800 nM in test [8].

As to `COc1ccccc1S(=O)(=O)Nc1ccc2c3c(cc(CCC(=O)NCCCCNc4cccc5c4C(=O)N(C4CCC(=O)NC4=O)C5=O)cc13)C(=O)N2C` (centres undefined), the GI50 was 427 nM in test [1]; greater than 100000 nM in test [2]; 2180 nM in test [3]; 1080 nM in test [4]; 697 nM in test [5]; 416 nM in test [6]. For the same molecule, the GI50 in test [7] was 2400 nM; in test [8], 625 nM. Besides, the TGI is greater than 100000 nM in test [1]; greater than 100000 nM in test [2]; greater than 100000 nM in test [3]; greater than 100000 nM in test [4]; greater than 100000 nM in test [5]; 4940 nM in test [6]. Also, the TGI in test [7] and in test [8] was greater than 100000 nM throughout.

`Cc1cc(C)c(C#N)c(Sc2nc(C)c([N+](=O)[O-])c(C)c2C#N)n1`: the GI50 is 15100 nM in test [1]; 4010 nM in test [2]; 5040 nM in test [3]; 3120 nM in test [4]; 3980 nM in test [5]; 3520 nM in test [6]. Further, the GI50 is 1810 nM in test [7] and 2840 nM in test [8]. The TGI in test [1] was 88000 nM; in test [2], 33100 nM; in test [3], 17900 nM; in test [4], 12400 nM; in test [5] it was 19000 nM; in test [6], 12700 nM. Besides, the TGI was found to be 4010 nM in test [7] and 8160 nM in test [8].

As for `COc1ccc(-c2nc(-c3nc4ccc(C)cc4[nH]3)cc3c2[nH]c2ccccc23)cc1`, the GI50 was 7280 nM in test [1]; 3720 nM in test [2]; 19300 nM in test [3]; 5000 nM in test [4]; 3260 nM in test [5]; 5780 nM in test [6]. In addition, the GI50 was 2990 nM in test [7] and 1850 nM in test [8]. For the same molecule, the TGI is greater than 100000 nM in test [1]; greater than 100000 nM in test [2]; greater than 100000 nM in test [3]; greater than 100000 nM in test [4]; 14000 nM in test [5]; greater than 100000 nM in test [6]. The TGI in test [7] was greater than 100000 nM; in test [8], 5310 nM.

On to `COC(=O)c1c(-c2cccs2)oc(-c2cccs2)c1C(=O)OC`, for which the GI50 was greater than 100000 nM in test [1]; 31600 nM in test [2]; 18000 nM in test [3]; 56700 nM in test [4]; 32500 nM in test [5]; 32800 nM in test [6]. Besides, the GI50 was 19300 nM in test [7] and 13100 nM in test [8]. Besides, the TGI in test [1] was greater than 100000 nM; in test [2], greater than 94500 nM; in test [3], 49800 nM; in test [4], greater than 100000 nM; in test [5], greater than 100000 nM; in test [6], greater than 100000 nM. Moreover, the TGI in test [7] was 60100 nM; in test [8], 92700 nM.
